Data as given in patent US10829520B2, “Beta-hairpin peptidomimetics” (POLYPHOR AG, priority 2015, dated 2020).
Where a SMILES comes first, the peptide text is derived from it. Bridges are numbered along the chain shown (N, C = ends). Roman numbers before positions name the chains, in order. [ ]: non-standard residue; d: D form. Tle = CC(C)(C)[C@H](N)C(=O)O; dDab = NCC[C@@H](N)C(=O)O; Nle = CCCC[C@H](N)C(=O)O; Orn = NCCC[C@H](N)C(=O)O; Dab = NCC[C@H](N)C(=O)O; dAze = O=C(O)[C@H]1CCN1; Dap = NC[C@H](N)C(=O)O

Tests used:
Assay type in all cases: cell-based
[1] = tested on: human red blood cells (hRBC); experiment: Hemolysis of human red blood cells; conditions: red cells of human, 1 h
Method in brief: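 Percent lysis of washed human erythrocytes after 1 h at 37° C. with 100 μg/mL peptide, calculated from OD540 of 8-fold diluted supernatant as a fraction of the 2.5% Triton X-100 value.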

[2] = tested on: Escherichia coli ATCC 25922; conditions: ATCC 25922
Method in brief: (§1)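 Broth microdilution per CLSI, cation-adjusted MH-II medium, 0.002% (v/v) polysorbate 80 final. Approx. 10^6 CFU/mL inoculum, incubated 35° C for 18-20 h; MIC read as absence of visible growth.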

[3] = tested on: Acinetobacter baumannii DSM 30008; conditions: DSM 30008
Method in brief: as §1

[4] = tested on: Klebsiella pneumoniae SSI #3010; conditions: SSI #3010
Method in brief: as §1

Escherichia coli 926415 = conditions: 926415
[5] = tested on: Acinetobacter baumannii 872842; conditions: 872842
[6] = tested on: Pseudomonas aeruginosa ATCC 27853; conditions: ATCC 27853
Method in brief: as §1

[7] = tested on: Klebsiella pneumoniae 968733; conditions: 968733

SMILES	Hemolysis at 100 μg/mL ([1]; 100 μg/mL)	Escherichia coli ATCC 25922 MIC [2]	Acinetobacter baumannii DSM 30008 MIC [3]	Klebsiella pneumoniae SSI #3010 MIC [4]	Escherichia coli 926415 MIC (Escherichia coli 926415)	Acinetobacter baumannii 872842 MIC [5]	Pseudomonas aeruginosa ATCC 27853 MIC [6]	Klebsiella pneumoniae 968733 MIC [7]	Hemolysis at 100 μg/mL [1]; 100
CC(C)C[C@@H]1NC(=O)[C@H](CO)NC(=O)[C@H](C(C)C)NC(=O)[C@@H]2CCCN2C(=O)[C@H]2CCCN2C(=O)[C@H](CO)NC(=O)[C@H](C)NC(=O)[C@H](C(C)(C)C)NC(=O)[C@@H](NC(=O)[C@@H](N)Cc2c[nH]c3ccccc23)CSSC[C@@H](C(=O)N[C@@H](CCCN)C(=O)N[C@@H](CCN)C(=O)N[C@H]2CCNC(=O)[C@H]([C@@H](C)O)NC(=O)[C@H](CCN)NC(=O)[C@H](CCN)NC(=O)[C@H](CC(C)C)NC(=O)[C@@H](Cc3ccccc3)NC(=O)[C@H](CCN)NC2=O)NC1=O [Ex. 188] (H-WC[Tle]AS[dP]PVSLC[Orn][Dab][Dab][Dab][dF]L[Dab][Dab]T; disulfide 2-11; lactam 14-C)	<1%	0.25 µg/mL	0.25 µg/mL	0.25 µg/mL	0.25 µg/mL	1 µg/mL	1 µg/mL	4 µg/mL	
CC(C)C[C@@H]1NC(=O)[C@@H](CC(C)C)NC(=O)[C@H](CCN)NC(=O)[C@@H](NC(=O)[C@H](CCN)NC(=O)[C@H](CN)NC(=O)[C@@H]2CSSC[C@H](NC(=O)[C@@H](N)Cc3c[nH]c4ccccc34)C(=O)N[C@@H](C(C)(C)C)C(=O)N[C@@H](C)C(=O)N[C@@H]([C@@H](C)O)C(=O)N3CC[C@@H]3C(=O)N3CCC[C@H]3C(=O)N[C@@H](C(C)C)C(=O)N[C@@H](CO)C(=O)N[C@@H](Cc3ccc(O)cc3)C(=O)N2)CCNC(=O)[C@H]([C@@H](C)O)NC(=O)[C@H](CCN)NC(=O)[C@H](CCN)NC1=O [Ex. 189] (H-WC[Tle]AT[dAze]PVSYC[Dap][Dab][Dab][Dab][dL]L[Dab][Dab]T; disulfide 2-11; lactam 14-C)	1%	0.25 µg/mL	0.5 µg/mL	0.5 µg/mL	0.5 µg/mL	0.125 µg/mL	2 µg/mL	1 µg/mL	
CC(C)C[C@@H]1NC(=O)[C@@H](Cc2ccccc2)NC(=O)[C@H](CCN)NC(=O)[C@@H](NC(=O)[C@H](CCN)NC(=O)[C@H](CCCN)NC(=O)[C@@H]2CSSC[C@H](NC(=O)[C@@H](N)Cc3c[nH]c4ccccc34)C(=O)N[C@@H](C(C)(C)C)C(=O)N[C@H]3CC(=O)NCC[C@H](NC(=O)[C@H](C(C)C)NC(=O)[C@@H]4CCCN4C(=O)[C@H]4CCN4C(=O)[C@H]([C@@H](C)O)NC3=O)C(=O)N[C@@H](Cc3ccc(O)cc3)C(=O)N2)CCNC(=O)[C@H]([C@@H](C)O)NC(=O)[C@H](CCN)NC(=O)[C@H](CCN)NC1=O [Ex. 191] (H-WC[Tle]DT[dAze]PV[Dab]YC[Orn][Dab][Dab][Dab][dF]L[Dab][Dab]T; disulfide 2-11; lactam 4-9, 14-C)	6%	0.5 µg/mL	0.5 µg/mL	0.25 µg/mL	0.125 µg/mL	0.25 µg/mL	1 µg/mL	0.5 µg/mL	
CCCC[C@@H]1NC(=O)[C@@H]2CCCN2C(=O)[C@H]2CCCN2C(=O)[C@H](CO)NC(=O)[C@H](C)NC(=O)[C@H](C(C)(C)C)NC(=O)[C@H](CCN)NC(=O)[C@H](Cc2c[nH]c3ccccc23)NC(=O)[C@@H](N)CCC(=O)NCC[C@@H](C(N)=O)NC(=O)[C@H](CCC(=O)N[C@H](CCN)C(=O)N[C@H]2CCNC(=O)[C@H]([C@@H](C)O)NC(=O)[C@H](CCN)NC(=O)[C@H](CCN)NC(=O)[C@H](CC(C)C)NC(=O)[C@@H](Cc3ccccc3)NC(=O)[C@H](CCN)NC2=O)NC(=O)[C@H](CCN)NC(=O)[C@H](Cc2ccc(O)cc2)NC(=O)[C@H](CO)NC1=O [Ex. 193] (I: H-EW[Dab][Tle]AS[dP]P[Nle]SY[Dab]E[Dab]-NH2 / II: [dDab][Dab][Dab][dF]L[Dab][Dab]T; lactam I:1-I:14, II:2-II:C; amide I:13-II:N)		0.5 µg/mL	1 µg/mL	0.5 µg/mL	0.5 µg/mL	1 µg/mL	2 µg/mL	1 µg/mL	<1%
CCCC[C@@H]1NC(=O)[C@@H]2CCCN2C(=O)[C@H]2CCCN2C(=O)[C@H](CO)NC(=O)[C@H](C)NC(=O)[C@H](C(C)(C)C)NC(=O)[C@H](CCN)NC(=O)[C@H](Cc2c[nH]c3ccccc23)NC(=O)[C@@H](NC(C)=O)CSSC[C@@H](C(N)=O)NC(=O)[C@H](CCC(=O)N[C@H](CCN)C(=O)N[C@H]2CCNC(=O)[C@H]([C@@H](C)O)NC(=O)[C@H](CCN)NC(=O)[C@H](CCN)NC(=O)[C@H](CC(C)C)NC(=O)[C@@H](Cc3ccccc3)NC(=O)[C@H](CCN)NC2=O)NC(=O)[C@H](CCN)NC(=O)[C@H](Cc2ccc(O)cc2)NC(=O)[C@H](CO)NC1=O [Ex. 194] (I: Ac-CW[Dab][Tle]AS[dP]P[Nle]SY[Dab]EC-NH2 / II: [dDab][Dab][Dab][dF]L[Dab][Dab]T; disulfide I:1-I:14; amide I:13-II:N; lactam II:2-II:C)	<1%	0.25 µg/mL	0.5 µg/mL	0.5 µg/mL	1 µg/mL	2 µg/mL	2 µg/mL	2 µg/mL	
CCCC[C@@H]1NC(=O)[C@@H]2CCCN2C(=O)[C@H]2CCCN2C(=O)[C@H](CO)NC(=O)[C@H](C)NC(=O)[C@H](C(C)(C)C)NC(=O)[C@H](CCN)NC(=O)[C@H](Cc2c[nH]c3ccccc23)NC(=O)[C@@H](NC(C)=O)CCNC(=O)CC[C@@H](C(=O)N[C@H](CCN)C(=O)N[C@H]2CCNC(=O)[C@H]([C@@H](C)O)NC(=O)[C@H](CCN)NC(=O)[C@H](CCN)NC(=O)[C@H](CC(C)C)NC(=O)[C@@H](CC(C)C)NC(=O)[C@H](CCN)NC2=O)NC(=O)[C@H](CCCN)NC(=O)[C@H](CCN)NC(=O)[C@H](Cc2ccc(O)cc2)NC(=O)[C@H](CO)NC1=O [Ex. 196] (Ac-[Dab]W[Dab][Tle]AS[dP]P[Nle]SY[Dab][Orn]E[dDab][Dab][Dab][dL]L[Dab][Dab]T; lactam 1-14, 16-C)		0.125 µg/mL	0.25 µg/mL	0.25 µg/mL	0.125 µg/mL	0.5 µg/mL	1 µg/mL	0.5 µg/mL	<1%
CCCC[C@@H]1NC(=O)[C@@H]2CCCN2C(=O)[C@H]2CCCN2C(=O)[C@H](CO)NC(=O)[C@H](C)NC(=O)[C@H](C(C)(C)C)NC(=O)[C@H](CCN)NC(=O)[C@H](Cc2c[nH]c3ccccc23)NC(=O)[C@@H](NC(C)=O)CCNC(=O)CC[C@@H](C(=O)N[C@H](CCN)C(=O)N[C@H]2CCNC(=O)[C@H]([C@@H](C)O)NC(=O)[C@H](CCN)NC(=O)[C@H](CCN)NC(=O)[C@H](CC(C)C)NC(=O)[C@@H](Cc3ccccc3)NC(=O)[C@H](CCN)NC2=O)NC(=O)[C@H](CCCN)NC(=O)[C@H](CCN)NC(=O)[C@H](Cc2ccc(O)cc2)NC(=O)[C@H](CO)NC1=O [Ex. 197] (Ac-[Dab]W[Dab][Tle]AS[dP]P[Nle]SY[Dab][Orn]E[dDab][Dab][Dab][dF]L[Dab][Dab]T; lactam 1-14, 16-C)		0.0625 µg/mL	0.5 µg/mL	0.25 µg/mL	0.25 µg/mL	4 µg/mL	2 µg/mL	2 µg/mL	2%
CCCC[C@@H]1NC(=O)[C@@H]2CCCN2C(=O)[C@H]2CCCN2C(=O)[C@H](CO)NC(=O)[C@H](C)NC(=O)[C@H](C(C)(C)C)NC(=O)[C@H](CCN)NC(=O)[C@H](Cc2c[nH]c3ccccc23)NC(=O)[C@@H](N)CCC(=O)NCC[C@@H](C(=O)N[C@H](CCN)C(=O)N[C@H]2CCNC(=O)[C@H]([C@@H](C)O)NC(=O)[C@H](CCN)NC(=O)[C@H](CCN)NC(=O)[C@H](CC(C)C)NC(=O)[C@@H](Cc3ccccc3)NC(=O)[C@H](CCN)NC2=O)NC(=O)[C@H](CCCN)NC(=O)[C@H](CCN)NC(=O)[C@H](Cc2ccc(O)cc2)NC(=O)[C@H](CO)NC1=O [Ex. 198] (H-EW[Dab][Tle]AS[dP]P[Nle]SY[Dab][Orn][Dab][dDab][Dab][Dab][dF]L[Dab][Dab]T; lactam 1-14, 16-C)		0.0625 µg/mL	0.25 µg/mL	0.125 µg/mL	0.5 µg/mL	1 µg/mL	0.5 µg/mL	1 µg/mL	1%
